The numbers were not newly measured in patent US20120128784A1, “COMPOSITION CONTAINING BEE VENOM AS AN ACTIVE INGREDIENT FOR PREVENTING AND TREATING ACNE” (Dong Sung Pharm. Co., Ltd., priority 2009, published 2012), which cites them from elsewhere.

This data set concerns edema. Particulars: injected into arthritis patients.

Turning to `CC[C@H](C)[C@H](NC(=O)CN)C(=O)NCC(=O)N[C@@H](C)C(=O)N[C@H](C(=O)N[C@@H](CC(C)C)C(=O)N[C@@H](CCCCN)C(=O)N[C@H](C(=O)N[C@@H](CC(C)C)C(=O)N[C@H](C(=O)N[C@H](C(=O)NCC(=O)N[C@@H](CC(C)C)C(=O)N1CCC[C@H]1C(=O)N[C@@H](C)C(=O)N[C@@H](CC(C)C)C(=O)N[C@H](C(=O)N[C@@H](CO)C(=O)N[C@@H](Cc1c[nH]c2ccccc12)C(=O)N[C@H](C(=O)N[C@@H](CCCCN)C(=O)N[C@@H](CCCNC(=N)N)C(=O)N[C@@H](CCCCN)C(=O)N[C@@H](CCCNC(=N)N)C(=O)N[C@@H](CCC(N)=O)C(=O)N[C@@H](CCC(N)=O)C(N)=O)[C@@H](C)CC)[C@@H](C)CC)[C@@H](C)O)[C@@H](C)O)C(C)C)C(C)C` [melittin], the inhibition of edema result is recorded as “edema was significantly inhibited”.
